Marks after values point to notes of the source that are not given here.
Tests used:
[1] = system: C57Bl/6 male mice on a high fat diet (HFD); experiment: High-fat diet (HFD) mice treated with CL2-57; assay type: in vivo, mouse
Procedure: High-Fat Diet and Drug Treatment. C57Bl/6 male mice (Jackson Laboratories) were placed on a high fat diet (HFD) (60% kcal from fat, Envigo) at 5 weeks. At 10 weeks, mice were acclimated to hydrogel replacement of drinking water (Clear H2O) for 3 days. Then, for six weeks while HFD continued, mice received 10 mg/kg CL2-57 oral gavage Mon/Wed/Fri (vehicle: 9.5% PEG-200, 5% DMSO, 0.1% polysorbate 80 in water) plus 10 mg/kg/day CL2-57 in continuous hydrogel, or vehicle control. Mice were weighed weekly. For fast-refed studies, mice fasted for 16 hours, then refed for 4 hours. Blood glucose was measured with handheld glucometer. Sample size, chosen based on previous experience with glucose tolerance test, was ten mice per treatment. Mice were assigned to treatment groups by cage randomization upon arrival from Jackson Laboratories. Mice were assigned a unique ear tag number to enable blinded tissue analysis and data collection. Treatment and in vivo experimentation were not blinded. No animals were excluded from analysis, and no control for confounders such as cage location or treatment order was performed.
Plasma/Liver Triglycerides. Blood was collected in EDTA-coated tubes (Becton Dickinson) and centrifuged (3500 rpm, 15 minutes) to separate plasma. Livers were flash frozen in liquid nitrogen, then stored at −80° C. until homogenization in isopropanol. Triglyceride levels were measured using reagents from Wako Diagnostics per manufacturer's protocol.
Glucose Tolerance Test (GTT). After 16-hour fast, animals were administered 1.5 g/kg body weight (bwt) glucose by intraperitoneal (i.p.) injection. Glucose in tail vein blood was measured at 0, 10, 20, 30, 45, 60, and 120 minutes using a ONETOUCH® […]® glucometer (LifeScan, Inc). Additional blood was collected at multiple points between 0-30 minutes in heparinized capillary tubes and centrifuged, with plasma insulin levels determined by ELISA (ALPCO).
Insulin Sensitivity Studies. Mice were injected with 1 U/kg bwt HUMALOG® insulin or vehicle (n=3 of each per treatment group) 15 minutes before sacrifice. Liver, subcutaneous fat, and gastrocnemius were collected and homogenized in lysis buffer (50 mM Tris-HCl (pH 7.4), 100 mM NaCl, 1 mM EDTA, 1 mM EGTA, 1% Triton™ X-100, with protease/phosphatase inhibitor (Complete, Roche)). Protein concentration was determined using Bradford reagent (Bio-Rad). Denatured protein (30 μg) was separated by SDS-PAGE (Mini-PROTEAN® TGX™ Gels 10%, Bio-Rad) and transferred to 0.45 μm nitrocellulose membranes. Membranes were blocked with 5% skim milk in TBST (1×TBS+0.1% polysorbate 20) for 1 hour, incubated with primary antibodies overnight at 4° C., washed with TBST, and incubated with horseradish peroxidase (HRP)-linked secondary antibodies for 1 hour. After TBST wash, Clarity™ Western ECL Substrate (Bio-Rad) was added. Blots were imaged and analyzed using a ChemiDoc™ MP and Image Lab Ver 6.0 (Bio-Rad). Protein levels were normalized to GAPDH (muscle) or β-actin (liver, adipose) for quantification. Primary antibodies: Cell Signaling Technology 4060 (pS473Akt, RRID:AB_2315049), 13038 (pT308Akt, RRID:AB_2629447), 4691 (pan-Akt, RRID:AB_915783), 5174 (GAPDH, RRID:AB 10622025) and Sigma A2228 (3-actin, RRID:AB_476697).
qRT-PCR. For cell samples, treated cells were lysed with RLT plus lysis buffer (Qiagen). RNA was isolated with Qiagen RNEASY® Plus columns per manufacturer instructions, then reverse-transcribed to cDNA using […]® III Reverse Transcriptase (200 U/μL, Invitrogen) per supplier protocol. qPCR experiments were either performed with TAQMAN® gene expression master mix (Invitrogen) on a StepOne™ qPCR instrument or with […]® SYBR® Green SuperMix (Quanta Biosciences) on CFX Connect™ Real-Time PCR Detection System (BioRad), with fold-change quantified by ΔΔCt. […]

[2] = system: C57Bl/6 control mice; experiment: C57Bl/6 control mice, daily p.o. CL2-57 for one week; assay type: in vivo, mouse
[3] = HFD mice, compared to vehicle control
[4] = plasma, fold change with CL2-57 vs. vehicle in HFD mice

CCOC(=O)c1cccc(NC(=O)c2sc(Cl)cc2S(=O)(=O)N(C)c2ccc(OCC)c(OCC)c2)c1 [CL2-57, ethyl 3-(5-chloro-3-(N-(3,4-diethoxyphenyl)-N-methylsulfamoyl)thiophene-2-carboxamido) benzoate]
Attenuation of HFD increases of plasma proinflammatory lipid mediators (lysophospholipids) ([1]; HFD mice): 20-60% | Brown adipose or liver mass ([1]; HFD mice): no change | Fall of liver mRNA encoding PPARα ([1]; HFD mice): 75% | Gluconeogenic metabolites ([1]; HFD mice): reduced | HFD increase of NO precursors arginine and guanidinosuccinate ([1]; HFD mice): reversed | HFD-increased liver oxysterol metabolites 7-hydroxycholesterol and 4-cholesten-3-one ([1]; HFD mice): reversed | Insulin secretion during the first 20 minutes of the GTT ([1]; HFD mice): negligible change | Liver Abcg1 expression ([1]; HFD mice): unchanged | Liver Abcg5 expression ([1]; HFD mice): significantly reduced | Liver Cyp7-a1 mRNA ([1]; HFD mice): diminishing trend | Liver Lpcat3 expression ([1]; HFD mice): significantly reduced | Liver Scd1 expression ([1]; HFD mice): significantly reduced | Liver Srebf1 mRNA ([1]; HFD mice): small increase | Liver cholesterol (reduced in HFD mice) ([1]; HFD mice): normalized to baseline | Liver free fatty acid (FFA) concentrations reduced by ([1]; HFD mice): 40-90% | Plasma FFAs decreased ([1]; HFD mice): 5-20% | Plasma levels of cholesterol and oxysterol metabolites ([1]; HFD mice): unaffected | Tissue mass composition by TD-NMR ([1]; HFD mice): shifted tissue mass from fat to lean | Circulating arachidonic acid (AA) increase over diet controls ([1]; HFD mice treated with CL2-57, vehicle 120%): 37% | Blood glucose concentrations following single i.p. glucose injection ([1]; HFD mice, GTT, vs vehicle): lower | Glucose tolerance test, total area under the curve reduced by ([1]; HFD mice, after five weeks, 2-hour test): 20% | Decrease in plasma TGs [1, 3]: 25% | Decrease of liver G6PC expression [1, 3]: 73% | Decrease of liver Pck1 expression [1, 3]: 70% | HFD increases of the four gluconeogenic precursors, in particular glutamine and glycerol [1, 3]: attenuated | Liver triglycerides (TGs) reduced by [1, 3]: 35% | Fasting/refed glucose and insulin levels ([1]; HFD mice, initially): Little change | Adipose Akt phosphorylation ([1]; HFD mice, insulin challenge): No treatment effect | Liver Akt phosphorylation at Ser473 with insulin ([1]; HFD mice, insulin challenge): did not change | Liver Akt phosphorylation at Thr308 with insulin ([1]; HFD mice, insulin challenge): increased | Skeletal muscle insulin sensitivity versus vehicle ([1]; HFD mice, insulin challenge): dramatically increased | Mature, nuclear form of SREBP1c protein ([1]; HFD mice, liver): unchanged | Uncleaved, endoplasmic reticulum form of SREBP1c protein ([1]; HFD mice, liver): corresponding increase | mRNA levels of proinflammatory enzymes, cytokines and chemokines (COX2, NOS2, TNFα, IL-6, CCL2, CXCL10) ([1]; HFD mice, liver and adipose): substantially lowered | Liver ABCA1 protein ([1]; HFD mice, liver homogenates): increased | Liver Abca1 expression ([1]; HFD mice, liver homogenates): increased | Lean tissue mass ([1]; HFD mice, on average): gained | Weight gain ([1]; HFD mice, over six weeks, vehicle 17%): 8 % of baseline | White adipose tissue mass reduced by, proportional to body weight ([1]; HFD mice, visceral (renal) and superficial (inguinal) fat pads): > 20% | Liver monoacylglycerols (MAGs) decreased ([1]; compared to HFD alone): 83-97% | Creatinine, urea, and bilirubin ([1]; markers of global inflammation and/or organ toxicity): unaffected | 1-Arachidonoyl-GPA (20:4), HED Drug/ Chow Veh [1, 4]: 0.65^† | 1-Arachidonoyl-GPC (20:4n6), HED Drug/ Chow Veh [1, 4]: 0.73^†† | 1-Arachidonoyl-GPE (20:4n6), HED Drug/ Chow Veh [1, 4]: 0.73^†† | 1-Arachidonoyl-GPI (20:4), HED Drug/ Chow Veh [1, 4]: 0.75^† | 1-Lignoceroyl-GPC (24:0), HED Drug/ Chow Veh [1, 4]: 0.99 | 1-Linolenoyl-GPC (18:3), HED Drug/ Chow Veh [1, 4]: 0.85 | 1-Linoleoyl-GPA (18:2), HED Drug/ Chow Veh [1, 4]: 0.57^†† | 1-Linoleoyl-GPC (18:2), HED Drug/ Chow Veh [1, 4]: 0.81^† | 1-Linoleoyl-GPE (18:2), HED Drug/ Chow Veh [1, 4]: 0.81 | 1-Linoleoyl-GPG (18:2), HED Drug/ Chow Veh [1, 4]: 0.75^† | 1-Linoleoyl-GPI (18:2), HED Drug/ Chow Veh [1, 4]: 0.72 | 1-Linoleoyl-GPS (18:2), HED Drug/ Chow Veh [1, 4]: 0.39^†† | 1-Oleoy1-GPI (18:1), HED Drug/ Chow Veh [1, 4]: 0.58^† | 1-Oleoyl-GPC (18:1), HED Drug/ Chow Veh [1, 4]: 0.84 | 1-Oleoyl-GPE (18:1), HED Drug/ Chow Veh [1, 4]: 0.79 | 1-Oleoyl-GPS (18:1), HED Drug/ Chow Veh [1, 4]: 0.62^† | 1-Palmitoleoyl-GPC (16:1), HED Drug/ Chow Veh [1, 4]: 0.81 | 1-Palmitoyl-GPA (16:0), HED Drug/ Chow Veh [1, 4]: 0.64^†† | 1-Palmitoyl-GPC (16:0), HED Drug/ Chow Veh [1, 4]: 0.83^† | 1-Palmitoyl-GPE (16:0), HED Drug/ Chow Veh [1, 4]: 0.95 | 1-Palmitoyl-GPI (16:0), HED Drug/ Chow Veh [1, 4]: 0.56^†† | 1-Palmitoyl-GPS (16:0), HED Drug/ Chow Veh [1, 4]: 0.77 | 1-Stearoyl-GPC (18:0), HED Drug/ Chow Veh [1, 4]: 0.94 | 1-Stearoyl-GPE (18:0), HED Drug/ Chow Veh [1, 4]: 0.91 | 1-Stearoyl-GPI (18:0), HED Drug/ Chow Veh [1, 4]: 0.82 | 2-Palmitoleoyl-GPC (16:1), HED Drug/ Chow Veh [1, 4]: 1.08 | 2-Palmitoyl-GPC (16:0), HED Drug/ Chow Veh [1, 4]: 0.81 | 2-Stearoyl-GPE (18:0), HED Drug/ Chow Veh [1, 4]: 0.74^†† | Docosahexaenoate (DPA; 22:6n3), HED Drug/ Chow Veh [1, 4]: 0.76 | Docosapentaenoate (n3 DPA; 22:5n3), HED Drug/ Chow Veh [1, 4]: 0.60^† | Docosapentaenoate (n6 DPA; 22:5n6), HED Drug/ Chow Veh [1, 4]: 0.92 | Eicosapentaenoate (EPA; 20:5n3), HED Drug/ Chow Veh [1, 4]: 0.60^† | Sphingadienine, HED Drug/ Chow Veh [1, 4]: 0.55^†† | Sphinganine, HED Drug/ Chow Veh [1, 4]: 0.67^†† | Sphinganine-1-phosphate, HED Drug/ Chow Veh [1, 4]: 0.73 | Sphingosine, HED Drug/ Chow Veh [1, 4]: 0.73 | Sphingosine-1-phosphate, HED Drug/ Chow Veh [1, 4]: 0.93 | Hepatic lipogenesis ([2]; 10 mg/kg daily p.o. one week): low-magnitude increases | Plasma TG or cholesterol compared to vehicle controls ([2]; C57Bl/6 mice, one week daily p.o.): no changes

From patent US20240199572A1, “COMPOUNDS, COMPOSITIONS, AND METHODS FOR TREATING TYPE 2 DIABETES AND DEMENTIA” (THE BOARD OF TRUSTEES OF THE UNIVERSITY OF ILLINOIS, priority 2021, published 2024)
